# From PubChem BioAssay AID1963847 (Molecular Pharmacology Branch, DTP, NCI, 2024)
# pIC50: −log10 of the molar value.
# Tested on: 415267-285-R-J2-PDC complex spheroid viability
# Assay: Anticancer human tumor 415267-285-R-J2-PDC patient-derived breast carcinoma cell line growth inhibition [POLQ]
# Conditions: for pIC50: curve of first compound; for viability, T/C: stronger effect = lower value
# Summary of the method: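 Growth inhibition in 3D: complex spheroids (tumor PDC, HUVEC, MSC) treated with POLQ inhibitor combinations; where Cmax unknown, highest tested concentration 10 microM, except SN-38 at 1 microM.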
# [1] = second compound 0.0316 µM, first compound 0.0316 µM
# [2] = second compound 0.0316 µM, first compound 0.1 µM
# [3] = second compound 0.0316 µM, first compound 0.316 µM
# [4] = second compound 0.0316 µM, first compound 1 µM
# [5] = second compound 0.0316 µM, first compound 3.16 µM
# [6] = second compound 0.0316 µM, first compound 10 µM
# [7] = second compound 0.1 µM, first compound 0.0316 µM
# [8] = second compound 0.1 µM, first compound 0.1 µM
# [9] = second compound 0.1 µM, first compound 0.316 µM
# [10] = second compound 0.1 µM, first compound 1 µM
# [11] = second compound 0.1 µM, first compound 3.16 µM
# [12] = second compound 0.1 µM, first compound 10 µM
# [13] = second compound 0.316 µM, first compound 0.0316 µM
# [14] = second compound 0.316 µM, first compound 0.1 µM
# [15] = second compound 0.316 µM, first compound 0.316 µM
# [16] = second compound 0.316 µM, first compound 1 µM
# [17] = second compound 0.316 µM, first compound 3.16 µM
# [18] = second compound 0.316 µM, first compound 10 µM
# [19] = second compound 1 µM, first compound 0.0316 µM
# [20] = second compound 1 µM, first compound 0.1 µM
# [21] = second compound 1 µM, first compound 0.316 µM
# [22] = second compound 1 µM, first compound 1 µM
# [23] = second compound 1 µM, first compound 3.16 µM
# [24] = second compound 1 µM, first compound 10 µM
# [25] = second compound 3.16 µM, first compound 0.0316 µM
# [26] = second compound 3.16 µM, first compound 0.1 µM
# [27] = second compound 3.16 µM, first compound 0.316 µM
# [28] = second compound 3.16 µM, first compound 1 µM
# [29] = second compound 3.16 µM, first compound 3.16 µM
# [30] = second compound 3.16 µM, first compound 10 µM
# [31] = second compound 10 µM, first compound 0.0316 µM
# [32] = second compound 10 µM, first compound 0.1 µM
# [33] = second compound 10 µM, first compound 0.316 µM
# [34] = second compound 10 µM, first compound 1 µM
# [35] = second compound 10 µM, first compound 3.16 µM
# [36] = second compound 10 µM, first compound 10 µM
# 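Also: spheroids exposed to compounds for one week before readout.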
# 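For viability, T/C in this document: luminescence used as stand-in measure of viable cells; 100% = DMSO vehicle control viability.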
structure (smiles),measurement,setting,value
CC(C)n1c(=O)n(C)c2cnc3cc(F)c(-c4ccc(OCCCN5CCCCC5)nc4)cc3c21 + COC1C(OC(N)=O)C(O)C(Oc2ccc3c(O)c(NC(=O)c4ccc(O)c(CC=C(C)C)c4)c(=O)oc3c2C)OC1(C)C,pIC50,second compound 0.0316 µM,< 5.00
same,pIC50,second compound 0.1 µM,< 5.00
same,pIC50,second compound 0.316 µM,< 5.00
same,pIC50,second compound 1 µM,< 5.00
same,pIC50,second compound 3.16 µM,< 5.00
same,pIC50,second compound 10 µM,< 5.00
same,"viability, T/C",[1],97.5%
same,"viability, T/C",[2],97.6%
same,"viability, T/C",[3],95.6%
same,"viability, T/C",[4],94.1%
same,"viability, T/C",[5],101%
same,"viability, T/C",[6],99.2%
same,"viability, T/C",[7],89.8%
same,"viability, T/C",[8],93.6%
same,"viability, T/C",[9],107%
same,"viability, T/C",[10],104%
same,"viability, T/C",[11],103%
same,"viability, T/C",[12],95.3%
same,"viability, T/C",[13],96.8%
same,"viability, T/C",[14],95.8%
same,"viability, T/C",[15],104%
same,"viability, T/C",[16],110%
same,"viability, T/C",[17],112%
same,"viability, T/C",[18],89.5%
same,"viability, T/C",[19],99.6%
same,"viability, T/C",[20],103%
same,"viability, T/C",[21],91.2%
same,"viability, T/C",[22],102%
same,"viability, T/C",[23],95.5%
same,"viability, T/C",[24],97%
same,"viability, T/C",[25],107%
same,"viability, T/C",[26],91.4%
same,"viability, T/C",[27],89%
same,"viability, T/C",[28],98.2%
same,"viability, T/C",[29],107%
same,"viability, T/C",[30],98.8%
same,"viability, T/C",[31],101%
same,"viability, T/C",[32],99.5%
same,"viability, T/C",[33],93.5%
same,"viability, T/C",[34],114%
same,"viability, T/C",[35],98.4%
same,"viability, T/C",[36],82.5%
COc1cc(C2c3cc4c(cc3C(OC3OC5COC(C)OC5C(O)C3O)C3COC(=O)C23)OCO4)cc(OC)c1O (stereo not drawn) + COC1C(OC(N)=O)C(O)C(Oc2ccc3c(O)c(NC(=O)c4ccc(O)c(CC=C(C)C)c4)c(=O)oc3c2C)OC1(C)C,pIC50,second compound 0.0316 µM,6.81
same,pIC50,second compound 0.1 µM,6.81
same,pIC50,second compound 0.316 µM,6.83
same,pIC50,second compound 1 µM,6.82
same,pIC50,second compound 3.16 µM,6.78
same,pIC50,second compound 10 µM,6.79
same,"viability, T/C",[1],88.3%
same,"viability, T/C",[2],72.4%
same,"viability, T/C",[3],13.8%
same,"viability, T/C",[4],8.42%
same,"viability, T/C",[5],5.21%
same,"viability, T/C",[6],6.94%
same,"viability, T/C",[7],97.4%
same,"viability, T/C",[8],72.1%
same,"viability, T/C",[9],14.5%
same,"viability, T/C",[10],8.54%
same,"viability, T/C",[11],5.95%
same,"viability, T/C",[12],5.76%
same,"viability, T/C",[13],97.7%
same,"viability, T/C",[14],69.6%
same,"viability, T/C",[15],12.8%
same,"viability, T/C",[16],8.42%
same,"viability, T/C",[17],5.87%
same,"viability, T/C",[18],6.37%
same,"viability, T/C",[19],98.3%
same,"viability, T/C",[20],71.6%
same,"viability, T/C",[21],13.1%
same,"viability, T/C",[22],7.07%
same,"viability, T/C",[23],6.69%
same,"viability, T/C",[24],5.99%
same,"viability, T/C",[25],87.1%
same,"viability, T/C",[26],75.9%
same,"viability, T/C",[27],17%
same,"viability, T/C",[28],8.05%
same,"viability, T/C",[29],5.46%
same,"viability, T/C",[30],6.77%
same,"viability, T/C",[31],101%
same,"viability, T/C",[32],75.6%
same,"viability, T/C",[33],15.3%
same,"viability, T/C",[34],8.14%
same,"viability, T/C",[35],6.45%
same,"viability, T/C",[36],5.77%
COc1ccc([C@@H](O)c2cc(-c3ncnc4cc(N5CCOCC5)ccc34)c(F)cc2Cl)nn1 + Cc1cccc(N(C)C(=O)C2C(O)CCN2c2nc(C)cc(C(F)(F)F)c2C#N)c1,pIC50,second compound 0.0316 µM,5.12
same,pIC50,second compound 0.1 µM,5.11
same,pIC50,second compound 0.316 µM,5.13
same,pIC50,second compound 1 µM,5.12
same,pIC50,second compound 3.16 µM,5.14
same,pIC50,second compound 10 µM,5.32
same,"viability, T/C",[1],89.5%
same,"viability, T/C",[2],103%
same,"viability, T/C",[3],98.9%
same,"viability, T/C",[4],102%
same,"viability, T/C",[5],74%
same,"viability, T/C",[6],42.7%
same,"viability, T/C",[7],93.9%
same,"viability, T/C",[8],102%
same,"viability, T/C",[9],110%
same,"viability, T/C",[10],91%
same,"viability, T/C",[11],82.1%
same,"viability, T/C",[12],40.9%
same,"viability, T/C",[13],99.3%
same,"viability, T/C",[14],102%
same,"viability, T/C",[15],98.5%
same,"viability, T/C",[16],100%
same,"viability, T/C",[17],81.3%
same,"viability, T/C",[18],39%
same,"viability, T/C",[19],99%
same,"viability, T/C",[20],91.3%
same,"viability, T/C",[21],92.7%
same,"viability, T/C",[22],93.2%
same,"viability, T/C",[23],69.4%
same,"viability, T/C",[24],44%
same,"viability, T/C",[25],93.1%
same,"viability, T/C",[26],100%
same,"viability, T/C",[27],98%
same,"viability, T/C",[28],88.9%
same,"viability, T/C",[29],75.5%
same,"viability, T/C",[30],39.9%
same,"viability, T/C",[31],101%
same,"viability, T/C",[32],99.3%
same,"viability, T/C",[33],94.5%
same,"viability, T/C",[34],86%
same,"viability, T/C",[35],59.7%
same,"viability, T/C",[36],31.6%
C#Cc1c(F)ccc2cc(O)cc(-c3ncc4c(N5CC6CCC(C5)N6)nc(OCC56CCCN5CC(F)C6)nc4c3F)c12 (stereo not drawn) + COC1C(OC(N)=O)C(O)C(Oc2ccc3c(O)c(NC(=O)c4ccc(O)c(CC=C(C)C)c4)c(=O)oc3c2C)OC1(C)C,pIC50,second compound 0.0316 µM,< 5.00
same,pIC50,second compound 0.1 µM,< 5.00
same,pIC50,second compound 0.316 µM,< 5.00
same,pIC50,second compound 1 µM,< 5.00
same,pIC50,second compound 3.16 µM,< 5.00
same,pIC50,second compound 10 µM,< 5.00
same,"viability, T/C",[1],101%
same,"viability, T/C",[2],95.3%
same,"viability, T/C",[3],103%
same,"viability, T/C",[4],95.4%
same,"viability, T/C",[5],97.7%
same,"viability, T/C",[6],101%
same,"viability, T/C",[7],97.6%
same,"viability, T/C",[8],91.9%
same,"viability, T/C",[9],102%
same,"viability, T/C",[10],103%
same,"viability, T/C",[11],101%
same,"viability, T/C",[12],110%
same,"viability, T/C",[13],97.7%
same,"viability, T/C",[14],103%
same,"viability, T/C",[15],104%
same,"viability, T/C",[16],95.3%
same,"viability, T/C",[17],99.3%
same,"viability, T/C",[18],100%
same,"viability, T/C",[19],84.9%
same,"viability, T/C",[20],92%
same,"viability, T/C",[21],91.2%
same,"viability, T/C",[22],104%
same,"viability, T/C",[23],102%
same,"viability, T/C",[24],96.7%
same,"viability, T/C",[25],100%
same,"viability, T/C",[26],111%
same,"viability, T/C",[27],92.1%
same,"viability, T/C",[28],111%
same,"viability, T/C",[29],94.5%
same,"viability, T/C",[30],91.4%
same,"viability, T/C",[31],95.3%
same,"viability, T/C",[32],105%
same,"viability, T/C",[33],98.4%
same,"viability, T/C",[34],98%
same,"viability, T/C",[35],91.8%
same,"viability, T/C",[36],103%
